Assays:
human ETA receptors = target: T1, human ETA receptors (Homo sapiens, UniProt P25101); test: Endothelin binding inhibition, Binding Test #1: competition with 125I-ET-1 for ETA receptors on TE 671 cell membranes
T1 construct: endogenous in cells; host or cells: TE 671 cells (ATCC HTB 139), membrane preparation
T1 sequence (P25101 21-427): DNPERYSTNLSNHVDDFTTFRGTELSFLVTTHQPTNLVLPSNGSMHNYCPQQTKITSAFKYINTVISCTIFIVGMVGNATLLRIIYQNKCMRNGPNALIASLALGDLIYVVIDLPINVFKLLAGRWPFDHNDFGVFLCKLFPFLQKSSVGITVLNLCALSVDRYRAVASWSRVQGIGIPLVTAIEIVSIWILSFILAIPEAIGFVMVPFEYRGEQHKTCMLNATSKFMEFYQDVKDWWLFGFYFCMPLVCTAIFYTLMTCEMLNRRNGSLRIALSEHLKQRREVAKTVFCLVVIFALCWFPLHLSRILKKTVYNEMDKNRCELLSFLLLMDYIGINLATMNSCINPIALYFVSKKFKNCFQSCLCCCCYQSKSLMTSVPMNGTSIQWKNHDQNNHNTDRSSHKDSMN
Procedure: (§1) Cells from multiple flasks were collected by scraping, pooled and centrifuged for 10 min at 190×g. The cells were resuspended in phosphate buffered saline (PBS) containing 10 mM EDTA using a Tenbroeck homogenizer. The suspension was centrifuged at 4° C. at 57,800×g for 15 min, the pellet was resuspended in 5 mL of buffer A (5 mM HEPES buffer, pH 7.4 containing aprotinin (100 KIU/mL)) and then frozen and thawed once. 5 mL of Buffer B (5 mM HEPES Buffer, pH 7.4 containing 10 mM MnCl2 and 0.001% deoxyribonuclease Type 1) was added, the suspension mixed by inversion and then incubated at 37° C. for 30 minutes. The mixture was centrifuged at 57,800×g as described above, the pellet washed twice with buffer A and then resuspended in buffer C (30 mM HEPES buffer, pH 7.4 containing aprotinin (100 KIU/mL) to give a final protein concentration of 2 mg/mL and stored at −70° C. until use.
The membrane suspension (50 μL), containing up to 8 μg of membrane protein, was added to each of (A), (B), or (C). […] Alternatively, the incubation was conducted at 24° C.
The supernatant, containing unbound radioactivity, was decanted and the pellet counted on a Genesys multiwell gamma counter. The degree of inhibition of binding (D) was calculated according to the following equation: [formula]
Each test was generally performed in triplicate.

human ETB receptor = target: T2, human ETB receptor (Homo sapiens, UniProt P24530); test: Endothelin binding inhibition, Binding Test #2: competition with 125I-ET-1 for ETB receptors on transfected COS7 cell membranes; details: for inhibition at 100 µM: read-out: ETB % inhibition @ 100 μM, @ 100 μM, incubation at 24° C.
T2 construct: expressed in transfected cells; host or cells: COS7 cells
T2 sequence (P24530 27-442): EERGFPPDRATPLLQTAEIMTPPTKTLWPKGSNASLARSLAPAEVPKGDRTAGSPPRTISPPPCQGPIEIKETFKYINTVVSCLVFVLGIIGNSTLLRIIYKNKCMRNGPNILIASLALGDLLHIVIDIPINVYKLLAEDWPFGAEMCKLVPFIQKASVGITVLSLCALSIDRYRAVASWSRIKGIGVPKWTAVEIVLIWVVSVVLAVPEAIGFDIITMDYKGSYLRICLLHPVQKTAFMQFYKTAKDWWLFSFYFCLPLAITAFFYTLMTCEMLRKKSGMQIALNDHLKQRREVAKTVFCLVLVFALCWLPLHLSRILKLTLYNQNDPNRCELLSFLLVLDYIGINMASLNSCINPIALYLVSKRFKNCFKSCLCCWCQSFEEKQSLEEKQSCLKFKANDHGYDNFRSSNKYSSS
Text: Compounds that are potential endothelin antagonists are identified by testing their ability to compete with ^125I-labeled ET-1 for binding to human ETA receptors or ETB receptors present on isolated cell membranes. The effectiveness of the test compound as an antagonist or agonist of the biological tissue response of endothelin can also be assessed by measuring the effect on endothelin induced contraction of isolated rat thoracic aortic rings. The ability of the compounds to act as antagonists or agonists for ETB receptors can be assess by testing the ability of the compounds are to inhibit endothelin-1 induced prostacyclin release from cultured bovine aortic endothelial cells.
COS7 cells were transfected with DNA encoding the ETB receptor, The resulting cells, which express the human ETB receptor, were grown to confluence in T-150 flasks. Membrane was prepared as described above. The binding assay was performed as described above using the membrane preparation diluted with binding buffer to a concentration of 1 μg/50 μL.
as §1, with “Briefly, the COS7 cells, described above, that had been transfected with DNA encoding the ETB receptor and express the human ETB receptor on their surfaces were grown to confluence in T-175 flasks. Cells” for “Cells”, “C.” for “C. at”, “once. Five” for “once. 5”, “2 mg/mL.” for “2 mg/mL and stored at −70° C. until use.”
The binding assay was performed as described above using the membrane preparation diluted to give 1 μg/50 μL of binding buffer.

[1] = incubation at 24° C. (values marked †)
[2] = incubation at 4° C. (values without †)

Structure (SMILES)	IC50 (human ETA receptors; [1]) [nM]	IC50 (human ETB receptor; [1]) [nM]	inhibition at 100 µM (human ETB receptor) [%]	IC50 (human ETA receptors; [2]) [nM]	IC50 (human ETB receptor; [2]) [nM]
CC(=O)OCc1c(C)cc(C)c(NC(=O)c2sccc2S(=O)(=O)Nc2onc(C)c2C)c1C [N-(3,4-dimethyl-5-isoxazolyl)-2-(3-acetoxymethyl-2,4,6-trimethylphenylaminocarbonyl)thiophene-3-sulfonamide]	0.97	156000			
Cc1cc(C)c(NC(=O)c2sccc2S(=O)(=O)Nc2onc(C)c2C)c(C)c1CO [N-(3,4-dimethyl-5-isoxazolyl)-2-(3-hydroxymethyl-2,4,6-trimethylphenylaminocarbonyl)thiophene-3-sulfonamide]	1.11	33800			
Cc1noc(NS(=O)(=O)c2c(Cc3ccc(Cl)cc3)sc3ccccc23)c1C [N-(3,4-dimethyl-5-isoxazolyl)-2-(4-chlorobenzyl)benzo[b]thiophene-3-sulfonamide]	210	4700			
Cc1noc(NS(=O)(=O)c2ccsc2C(=O)Oc2ccccc2)c1C [N-(3,4-dimethyl-5-isoxazolyl)-2-(phenoxycarbonyl)thiophene-3-sulfonamide]	2850		31		
Cc1cc2c(cc1CC(=O)c1sccc1S(=O)(=O)Nc1onc(C)c1C)OCO2 [N-(3,4-dimethyl-5-isoxazolyl)-2-[2-methyl-4,5-(methylenedioxy)phenylacetyl]thiophene-3-sulfonamide]	3.28	34300			
Cc1noc(NS(=O)(=O)c2ccsc2C(=O)Cc2ccc3c(c2)OCO3)c1C [N-(3,4-dimethyl-5-isoxazolyl)-2-[3,4-(methylenedioxy)phenylacetyl]thiophene-3-sulfonamide]	27.3	12200			
Cc1cc(C)c(OC(=O)c2sccc2S(=O)(=O)Nc2onc(C)c2C)c(C)c1 [N-(3,4-dimethyl-5-isoxazolyl)-2-[(2,4,6-trimethylphenoxy)carbonyl]thiophene-3-sulfonamide]	537		8		
Cc1ccc(OC(=O)c2sccc2S(=O)(=O)Nc2onc(C)c2C)c(C)c1 [N-(3,4-dimethyl-5-isoxazolyl)-2-[(2,4-dimethylphenoxy)carbonyl]thiophene-3-sulfonamide]	274		21		
Cc1ccc(NC(=O)c2sccc2S(=O)(=O)Nc2onc(C)c2C)cc1 [N-(3,4-dimethyl-5-isoxazolyl)-2-[(4-methylphenyl)aminocarbonyl]thiophene-3-sulfonamide]				3.36	11300
Cc1noc(NS(=O)(=O)c2c(C)sc3ccccc23)c1C [N-(3,4-dimethyl-5-isoxazolyl)-2-methylbenzo[b]thiophene-3-sulfonamide]				167	16600
Cc1noc(NS(=O)(=O)c2ccsc2C(=O)Oc2ccc3c(c2)OCO3)c1C [N-(3,4-dimethyl-5-isoxazolyl)-2-{(3,4-(methylenedioxy)phenoxy]carbonyl}thiophene-3-sulfonamide]	3610		30		
Cc1cc(C)c(CCc2sccc2S(=O)(=O)Nc2onc(C)c2Br)c(C)c1 [N-(4-bromo-3-methyl-5-isoxazolyl)-2-(2,4,6-trimethylphenethyl)thiophene-3-sulfonamide]	41.7	1230			
Cc1ccc(CCc2sccc2S(=O)(=O)Nc2onc(C)c2Br)c(C)c1 [N-(4-bromo-3-methyl-5-isoxazolyl)-2-(2,4-dimethylphenethyl)thiophene-3-sulfonamide]	55.5	3480			
Cc1ccc(CC(=O)c2sccc2S(=O)(=O)Nc2onc(C)c2Br)c(C)c1 [N-(4-bromo-3-methyl-5-isoxazolyl)-2-(2,4-dimethylphenylacetyl)thiophene-3-sulfonamide]	0.8	3600			
COc1cc(Cc2sc3ccccc3c2S(=O)(=O)Nc2onc(C)c2Br)cc(OC)c1OC [N-(4-bromo-3-methyl-5-isoxazolyl)-2-(3,4,5-trimethoxybenzyl)-benzo[b]thiophene-3-sulfonamide]	13	1200			
COc1ccc(Cc2sc3ccccc3c2S(=O)(=O)Nc2onc(C)c2Br)cc1OC [N-(4-bromo-3-methyl-5-isoxazolyl)-2-(3,4-dimethoxybenzyl)benzo[b]thiophene-3-sulfonamide]	21 ± 17	2940 ± 1320			
CCc1ccc(Cc2sc3ccccc3c2S(=O)(=O)Nc2onc(C)c2Br)cc1 [N-(4-bromo-3-methyl-5-isoxazolyl)-2-(4-ethylbenzyl)benzo[b]thiophene-3-sulfonamide]	48	1100			
COc1ccc(Cc2sc3ccccc3c2S(=O)(=O)Nc2onc(C)c2Br)cc1 [N-(4-bromo-3-methyl-5-isoxazolyl)-2-(4-methoxybenzyl)benzo[b]thiophene-3-sulfonamide]	51	1500			
Cc1noc(NS(=O)(=O)c2ccsc2CO)c1Br [N-(4-bromo-3-methyl-5-isoxazolyl)-2-(hydroxymethyl)thiophene-3-sulfonamide]	1550			160	44100
Cc1noc(NS(=O)(=O)c2ccsc2C(=O)Oc2ccccc2)c1Br [N-(4-bromo-3-methyl-5-isoxazolyl)-2-(phenoxycarbonyl)thiophene-3-sulfonamide]	2710		20		
Cc1noc(NS(=O)(=O)c2ccsc2C(O)c2ccccc2)c1Br (stereo not drawn) [N-(4-bromo-3-methyl-5-isoxazolyl)-2-(α-hydroxybenzyl)thiophene-3-sulfonamide]				337	9370
Cc1noc(NS(=O)(=O)c2ccsc2C(=O)Nc2ccccc2C(=O)O)c1Br [N-(4-bromo-3-methyl-5-isoxazolyl)-2-[2-carboxylphenyl)aminocarbonyl]-thiophene-3-sulfonamide]	210	20000			
Cc1cc2c(cc1C=CCc1sccc1S(=O)(=O)Nc1onc(C)c1Br)OCO2 [N-(4-bromo-3-methyl-5-isoxazolyl)-2-[2-methyl-4,5-(methylenedioxy)cinnamyl]thiophene-3-sulfonamide]	80.4	3280			
Cc1noc(NS(=O)(=O)c2c(Cc3ccc4c(c3)OCO4)sc3ccccc23)c1Br [N-(4-bromo-3-methyl-5-isoxazolyl)-2-[3,4-(methylenedioxy)benzyl]benzo[b]thiophene-3-sulfonamide]	7.4 ± 1.1	939 ± 262		1.5 ± 1.4	324 ± 780
